Measurements from ChEMBL document CHEMBL3885881, “DrugMatrix”.

Species on record: Rattus norvegicus
Test: DrugMatrix - Regimen: Daily Repeat
Format: toxicity, organism-based, Sprague-Dawley
Parameters: regimen Daily Repeat, gender Male, age 6-8 weeks
Settings: in vivo, po, 1100 mg/kg, route oral GAVAGE, dose level High, vehicle 100 % WATER; for ABSOLUTE BASOPHIL / ABSOLUTE EOSINOPHIL / ABSOLUTE LYMPHOCYTE / ABSOLUTE MONOCYTE / ABSOLUTE SEGMENTED NEUTROPHIL / BASOPHIL / EOSINOPHIL / ERYTHROCYTE COUNT / HEMATOCRIT / HEMOGLOBIN / LEUKOCYTE COUNT / LYMPHOCYTE / MEAN CORPUSCULAR HEMOGLOBIN / MEAN CORPUSCULAR HEMOGLOBIN CONCENTRATION / MEAN CORPUSCULAR VOLUME / MONOCYTE / NEUTROPHIL / NUCLEATED RED BLOOD CELLS / PLATELET COUNT: tissue Blood; for ALANINE AMINOTRANSFERASE / ALBUMIN / ALKALINE PHOSPHATASE / ASPARTATE AMINOTRANSFERASE / BLOOD UREA NITROGEN / CARBON DIOXIDE / CHLORIDE / CHOLESTEROL / CREATINE PHOSPHOKINASE / CREATININE / GLUCOSE / LACTATE DEHYDROGENASE / LIPASE / PHOSPHORUS / POTASSIUM / SODIUM / TOTAL BILIRUBIN / TOTAL PROTEIN / URIC ACID: tissue Plasma

O=C(O)CCNC(=O)c1ccc(/N=N/c2ccc(O)c(C(=O)O)c2)cc1 [BALSALAZIDE]
ABSOLUTE BASOPHIL (72 h, time 3 day): 0 CELLS/uL | ABSOLUTE EOSINOPHIL (72 h, time 3 day): 0 CELLS/uL | ABSOLUTE LYMPHOCYTE (72 h, time 3 day): 7596 CELLS/uL | ABSOLUTE MONOCYTE (72 h, time 3 day): 55 CELLS/uL | ABSOLUTE SEGMENTED NEUTROPHIL (72 h, time 3 day): 682.33 CELLS/uL | BASOPHIL (72 h, time 3 day): 0% | EOSINOPHIL (72 h, time 3 day): 0% | ERYTHROCYTE COUNT (72 h, time 3 day): 5.29 x10E6/uL | HEMATOCRIT (72 h, time 3 day): 33.57% | HEMOGLOBIN (72 h, time 3 day): 13.27 G/DL | LEUKOCYTE COUNT (72 h, time 3 day): 8.33 x10E3/uL | LYMPHOCYTE (72 h, time 3 day): 91.33% | MEAN CORPUSCULAR HEMOGLOBIN (72 h, time 3 day): 25.13 pg | MEAN CORPUSCULAR HEMOGLOBIN CONCENTRATION (72 h, time 3 day): 39.5 G/DL | MEAN CORPUSCULAR VOLUME (72 h, time 3 day): 63.47 fL | MONOCYTE (72 h, time 3 day): 0.67% | NEUTROPHIL (72 h, time 3 day): 8% | NUCLEATED RED BLOOD CELLS (72 h, time 3 day): 0 /100WBC | PLATELET COUNT (72 h, time 3 day): 833.67 x10E3/uL | ALANINE AMINOTRANSFERASE (72 h, time 3 day): 62.67 u/L | ALBUMIN (72 h, time 3 day): 4.33 G/DL | ALKALINE PHOSPHATASE (72 h, time 3 day): 344.33 u/L | ASPARTATE AMINOTRANSFERASE (72 h, time 3 day): 98.67 u/L | BLOOD UREA NITROGEN (72 h, time 3 day): 15 mg/dL | CARBON DIOXIDE (72 h, time 3 day): 32.67 mmol/L | CHLORIDE (72 h, time 3 day): 101.67 MEQ/L | CHOLESTEROL (72 h, time 3 day): 84.33 mg/dL | CREATINE PHOSPHOKINASE (72 h, time 3 day): 333 u/L | CREATININE (72 h, time 3 day): 0.49 mg/dL | GLUCOSE (72 h, time 3 day): 160.33 mg/dL | LACTATE DEHYDROGENASE (72 h, time 3 day): 159 u/L | LIPASE (72 h, time 3 day): 12 u/L | PHOSPHORUS (72 h, time 3 day): 11.9 mg/dL | POTASSIUM (72 h, time 3 day): 5.97 MEQ/L | SODIUM (72 h, time 3 day): 145.53 MEQ/L | TOTAL BILIRUBIN (72 h, time 3 day): 0.27 mg/dL | TOTAL PROTEIN (72 h, time 3 day): 6.1 G/DL | URIC ACID (72 h, time 3 day): 0.67 mg/dL | ABSOLUTE BASOPHIL (120 h, time 5 day): 0 CELLS/uL | ABSOLUTE EOSINOPHIL (120 h, time 5 day): 0 CELLS/uL | ABSOLUTE LYMPHOCYTE (120 h, time 5 day): 12609 CELLS/uL | ABSOLUTE MONOCYTE (120 h, time 5 day): 37.67 CELLS/uL | ABSOLUTE SEGMENTED NEUTROPHIL (120 h, time 5 day): 1253.33 CELLS/uL | BASOPHIL (120 h, time 5 day): 0% | EOSINOPHIL (120 h, time 5 day): 0% | ERYTHROCYTE COUNT (120 h, time 5 day): 5.68 x10E6/uL | HEMATOCRIT (120 h, time 5 day): 35.73% | HEMOGLOBIN (120 h, time 5 day): 14.1 G/DL | LEUKOCYTE COUNT (120 h, time 5 day): 13.9 x10E3/uL | LYMPHOCYTE (120 h, time 5 day): 91.33% | MEAN CORPUSCULAR HEMOGLOBIN (120 h, time 5 day): 24.87 pg | MEAN CORPUSCULAR HEMOGLOBIN CONCENTRATION (120 h, time 5 day): 39.47 G/DL | MEAN CORPUSCULAR VOLUME (120 h, time 5 day): 62.93 fL | MONOCYTE (120 h, time 5 day): 0.33% | NEUTROPHIL (120 h, time 5 day): 8.33% | NUCLEATED RED BLOOD CELLS (120 h, time 5 day): 0 /100WBC | PLATELET COUNT (120 h, time 5 day): 1338 x10E3/uL | ALANINE AMINOTRANSFERASE (120 h, time 5 day): 55.33 u/L | ALBUMIN (120 h, time 5 day): 4 G/DL | ALKALINE PHOSPHATASE (120 h, time 5 day): 346.67 u/L | ASPARTATE AMINOTRANSFERASE (120 h, time 5 day): 106 u/L | BLOOD UREA NITROGEN (120 h, time 5 day): 17.67 mg/dL | CARBON DIOXIDE (120 h, time 5 day): 27 mmol/L | CHLORIDE (120 h, time 5 day): 104 MEQ/L | CHOLESTEROL (120 h, time 5 day): 55.33 mg/dL | CREATINE PHOSPHOKINASE (120 h, time 5 day): 414 u/L | CREATININE (120 h, time 5 day): 0.14 mg/dL | GLUCOSE (120 h, time 5 day): 163.67 mg/dL | LACTATE DEHYDROGENASE (120 h, time 5 day): 452.33 u/L | LIPASE (120 h, time 5 day): 10 u/L | PHOSPHORUS (120 h, time 5 day): 12.77 mg/dL | POTASSIUM (120 h, time 5 day): 6.29 MEQ/L | SODIUM (120 h, time 5 day): 144.53 MEQ/L | TOTAL BILIRUBIN (120 h, time 5 day): 0.17 mg/dL | TOTAL PROTEIN (120 h, time 5 day): 5.57 G/DL | URIC ACID (120 h, time 5 day): 1.53 mg/dL
